Values quoted from earlier work in PubChem BioAssay AID1259409 (Chemical Carcinogenesis Research Information System (CCRIS), 2018).

Tested on: rodent chemically induced tumor inhibition, incidence and multiplicity
Test: CCRIS tumor inhibitor studies
Conditions: for outcome: Carcinogen: X-RAY, Strain/Sex: C57BL/MALE AND FEMALE, Target Tissue: Type of Lesion: THYMUS GLAND: LYMPHOMA, Dose [Carcinogen]: 175 RADS 1/WK FOR 4 WK (250 KV X-RAYS, PHILLIPS RT 200/250)

## N#CCc1c[nH]c2ccccc12
Carcinogen: 7,12-DIMETHYLBENZ[A]ANTHRACENE, 57-97-6, Dose [Inhibitor]: 0.03 MMOL/G DIET DAILY STARTING 8 D PRIOR TO AND CONTINUING THROUGH CARCINOGEN ADMINISTRATION FOLLOWED BY A 14 WK OBSERV, Route [Inhibitor]: ORAL, Species: RAT, Strain/Sex: SPRAGUE-DAWLEY/FEMALE, Target Tissue: Type of Lesion: MAMMARY GLAND: TUMOR, Dose [Carcinogen]: 12 MG IN 1 ML OLIVE OIL ONCE, Promoter: NONE USED
  tumour outcome (control, treated, inhibition, significance): 73%, 54%, 26%, not significant
Carcinogen: 7,12-DIMETHYLBENZ[A]ANTHRACENE, 57-97-6, Dose [Inhibitor]: 0.1 MMOL IN 1 ML DIMETHYL SULFOXIDE ONCE 20 HR PRIOR TO CARCINOGEN ADMINISTRATION FOLLOWED BY A 14 WK OBSERVATION PERIOD, Route [Inhibitor]: GAVAGE, Species: RAT, Strain/Sex: SPRAGUE-DAWLEY/FEMALE, Target Tissue: Type of Lesion: MAMMARY GLAND: TUMOR, Dose [Carcinogen]: 12 MG IN 1 ML OLIVE OIL ONCE, Promoter: NONE
  tumour outcome (control, treated, inhibition, significance): 91%, 73%, 20%, not significant
Carcinogen: 7,12-DIMETHYLBENZ[A]ANTHRACENE, 57-97-6, Dose [Inhibitor]: 0.1 MMOL IN 1 ML DIMETHYL SULFOXIDE ONCE 20 HR PRIOR TO CARCINOGEN ADMINISTRATION FOLLOWED BY A 14 WK OBSERVATION PERIOD, Route [Inhibitor]: GAVAGE, Species: RAT, Strain/Sex: SPRAGUE-DAWLEY/FEMALE, Target Tissue: Type of Lesion: MAMMARY GLAND: TUMOR, Dose [Carcinogen]: 12 MG IN 1 ML OLIVE OIL ONCE, Promoter: NONE USED
  tumour outcome (control, treated, inhibition, significance): 60%, 50%, 17%, not significant
Carcinogen: BENZO[A]PYRENE, 50-32-8, Dose [Inhibitor]: 0.03 MMOL/G DIET DAILY STARTING AT 63 D OF AGE (8 D PRIOR TO START OF CARCINOGEN TREATMENT) THROUGH 98 D OF AGE FOLLOWED, Route [Inhibitor]: ORAL, Species: MOUSE, Strain/Sex: ICR/FEMALE, Target Tissue: Type of Lesion: FORESTOMACH: TUMOR, Dose [Carcinogen]: 1 MG IN 0.2 ML CORN OIL ADMINISTERED 2/WK FOR 4 WK, Promoter: NONE USED
  tumour outcome (control, treated, inhibition, significance): 93%, 68%, 27%, not significant
Carcinogen: BENZO[A]PYRENE, 50-32-8, Dose [Inhibitor]: 0.03 MMOL/G DIET DAILY STARTING AT 63 D OF AGE (8 D PRIOR TO START OF CARCINOGEN TREATMENT) THROUGH 126 D OF AGE FOLLOWE, Route [Inhibitor]: ORAL, Species: MOUSE, Strain/Sex: ICR/FEMALE, Target Tissue: Type of Lesion: FORESTOMACH: TUMOR, Dose [Carcinogen]: 0.3 MG IN 0.2 ML CORN OIL ADMINISTERED 3/WK FOR 8 WK, Promoter: NONE USED
  tumour outcome (control, treated, inhibition, significance): 100%, 44%, 56%, p<0.01

## NCc1cc(=O)[nH]o1
Carcinogen: AZOXYMETHANE, 25843-45-2, Dose [Inhibitor]: 0, 0.5 MG/KG IN 2 ML/KG 0.9% SALINE 1/2 D CONCURRENTLY WITH CARCINOGEN AND CONTINUING FOR STUDY DURATION (STUDY DURATION, Route [Inhibitor]: INTRAPERITONEAL, Species: RAT, Strain/Sex: WISTAR/MALE, Target Tissue: Type of Lesion: COLON: ADENOMA, Dose [Carcinogen]: 7.4 MG/KG IN 0.9% SALINE 1/WK FOR 10 WK, Promoter: NONE USED
  tumour outcome (control, treated, inhibition, significance): 3/17 (18%), 8/19 (42%), -133%, not significant
Carcinogen: N-METHYL-N'-NITRO-N-NITROSOGUANIDINE, 70-25-7, Dose [Inhibitor]: 0, 0.25 MG/KG IN NACL INJECTED 1/2 D FOR DURATION OF STUDY BEGINNING 1 WK POST CARCINOGEN DOSE (STUDY DURATION: 52 WK), Route [Inhibitor]: INTRAPERITONEAL, Species: RAT, Strain/Sex: WISTAR/MALE, Target Tissue: Type of Lesion: STOMACH: ADENOCARCINOMA, Dose [Carcinogen]: 50 UG/ML IN DRINKING WATER FOR 25 WK, Promoter: NONE USED
  tumour outcome (control, treated, inhibition, significance): 13/19 (68%), 12/20 (60%), 12%, not significant
Carcinogen: N-METHYL-N'-NITRO-N-NITROSOGUANIDINE, 70-25-7, Dose [Inhibitor]: 0, 0.5 MG/KG BW 1/2 D FOR DURATION OF STUDY BEGINNING 1 WK POST LAST CARCINOGEN DOSE (STUDY DURATION: 52 WK), Route [Inhibitor]: INTRAPERITONEAL, Species: RAT, Strain/Sex: SHR/MALE, Target Tissue: Type of Lesion: STOMACH: ADENOCARCINOMA, Dose [Carcinogen]: 25 UG/ML IN DRINKING WATER FOR 25 WK, Promoter: NONE USED
  tumour outcome (control, treated, inhibition, significance): 10/20 (50%), 3/20 (15%), 70%, p<0.05
Carcinogen: N-METHYL-N'-NITRO-N-NITROSOGUANIDINE, 70-25-7, Dose [Inhibitor]: 0, 0.5 MG/KG BW 1/2 D FOR DURATION OF STUDY BEGINNING 1 WK POST LAST CARCINOGEN DOSE (STUDY DURATION: 52 WK), Route [Inhibitor]: INTRAPERITONEAL, Species: RAT, Strain/Sex: WISTAR/MALE, Target Tissue: Type of Lesion: STOMACH: ADENOCARCINOMA, Dose [Carcinogen]: 25 UG/ML IN DRINKING WATER FOR 25 WK, Promoter: NONE USED
  tumour outcome (control, treated, inhibition, significance): 1/14 (7%), 0/15 (0%), 100%, not significant
Carcinogen: N-METHYL-N'-NITRO-N-NITROSOGUANIDINE, 70-25-7, Dose [Inhibitor]: 0, 0.5 MG/KG IN NACL INJECTED 1/2 D FOR DURATION OF STUDY BEGINNING 1 WK POST CARCINOGEN DOSE (STUDY DURATION: 52 WK), Route [Inhibitor]: INTRAPERITONEAL, Species: RAT, Strain/Sex: WISTAR/MALE, Target Tissue: Type of Lesion: STOMACH: ADENOCARCINOMA, Dose [Carcinogen]: 50 UG/ML IN DRINKING WATER FOR 25 WK, Promoter: NONE USED
  tumour outcome (control, treated, inhibition, significance): 13/19 (68%), 12/18 (67%), 2%, not calculated

## C[S+](C)CC(=O)[O-]
Carcinogen: 7,12-DIMETHYLBENZ[A]ANTHRACENE, 57-97-6, Dose [Inhibitor]: 0, 0.005 MOL/KG DIET BEGINNING 2 WK PRIOR TO CARCINOGEN AND CONTINUED FOR STUDY DURATION (STUDY DURATION: 25 WK), Route [Inhibitor]: ORAL, Species: RAT, Strain/Sex: CD-1/FEMALE, Target Tissue: Type of Lesion: MAMMARY GLAND: ADENOCARCINOMA, Dose [Carcinogen]: 10 MG ONCE, Promoter: NONE USED
  tumour outcome (control, treated, inhibition, significance): 20/25 (80%), 19/25 (76%), 5%, not significant
Carcinogen: 7,12-DIMETHYLBENZ[A]ANTHRACENE, 57-97-6, Dose [Inhibitor]: 0, 0.01 MOL/KG DIET BEGINNING 2 WK PRIOR TO CARCINOGEN AND CONTINUED FOR STUDY DURATION (STUDY DURATION: 25 WK), Route [Inhibitor]: ORAL, Species: RAT, Strain/Sex: CD-1/FEMALE, Target Tissue: Type of Lesion: MAMMARY GLAND: ADENOCARCINOMA, Dose [Carcinogen]: 10 MG ONCE, Promoter: NONE USED
  tumour outcome (control, treated, inhibition, significance): 20/25 (80%), 21/25 (84%), -5%, not significant
Carcinogen: 7,12-DIMETHYLBENZ[A]ANTHRACENE, 57-97-6, Dose [Inhibitor]: 0, 0.02 MOL/KG DIET BEGINNING 2 WK PRIOR TO CARCINOGEN AND CONTINUED FOR STUDY DURATION (STUDY DURATION: 25 WK), Route [Inhibitor]: ORAL, Species: RAT, Strain/Sex: CD-1/FEMALE, Target Tissue: Type of Lesion: MAMMARY GLAND: ADENOCARCINOMA, Dose [Carcinogen]: 10 MG ONCE, Promoter: NONE USED
  tumour outcome (control, treated, inhibition, significance): 20/25 (80%), 18/25 (72%), 10%, not significant

## CC(=O)OCC(=O)[C@H]1CC[C@H]2[C@@H]3CCC4=CC(=O)CC[C@]4(C)[C@H]3CC[C@]12C
Carcinogen: 1,2-DIMETHYLHYDRAZINE DIHYDROCHLORIDE, 306-37-6, Dose [Inhibitor]: 0, 10 MG/KG IN PEANUT OIL ON DAYS 1 AND 3 OF STUDY THEN 1/WK FOR 30 WK (STUDY DURATION: 31 WK), Route [Inhibitor]: SUBCUTANEOUS, Species: RAT, Strain/Sex: SPRAGUE-DAWLEY/MALE, Target Tissue: Type of Lesion: COLON: ADENOCARCINOMA, Dose [Carcinogen]: 9 MG/KG 1/WK FOR 7 WK THEN 19.4 MG/KG 1/WK FOR 13 WK, Promoter: NONE USED
  tumour outcome (control, treated, inhibition, significance): 14/14 (100%), 13/13 (100%), 0%, not significant
Carcinogen: 1,2-DIMETHYLHYDRAZINE DIHYDROCHLORIDE, 306-37-6, Dose [Inhibitor]: 0, 10 MG/KG IN PEANUT OIL ON DAYS 1 AND 3 OF STUDY THEN 1/WK FOR 30 WK (STUDY DURATION: 31 WK), Route [Inhibitor]: SUBCUTANEOUS, Species: RAT, Strain/Sex: SPRAGUE-DAWLEY/MALE, Target Tissue: Type of Lesion: SMALL INTESTINE: ADENOCARCINOMA, Dose [Carcinogen]: 9 MG/KG 1/WK FOR 7 WK THEN 19.4 MG/KG 1/WK FOR 13 WK, Promoter: NONE USED
  tumour outcome (control, treated, inhibition, significance): 13/14 (93%), 9/13 (69%), 26%, not significant

## C=C(NC(=O)Cc1ccccc1OC)C(=O)O
Dose [Inhibitor]: 0, 100 MG/KG 15 MIN PRIOR TO EACH IRRADIATION (STUDY DURATION: 14 MO), Route [Inhibitor]: INTRAPERITONEAL, Species: MOUSE, Promoter: NONE USED
  outcome: 45%, 45%, 0%, not significant at 5 mo; 93%, >90%, <3%, not calculated
Dose [Inhibitor]: 0, 200 MG/KG 15 MIN PRIOR TO SECOND AND FOURTH IRRADIATION (STUDY DURATION 14 MO), Route [Inhibitor]: INTRAPERITONEAL, Species: MOUSE, Promoter: NONE USED
  outcome: 45%, 0%, 100%, not calculated at 5 mo; 93%, 40%, 57%, not calculated at 8 mo
Dose [Inhibitor]: 0, 400 MG/KG ONCE 15 MIN PRIOR TO FIRST IRRADIATION (STUDY DURATION: 14 MO), Route [Inhibitor]: INTRAPERITONEAL, Species: MOUSE, Promoter: NONE USED
  outcome: 45%, 10%, 78%, not calculated at 5 mo; 93%, >90%, <3%, not calculated at 8 mo
